Results published in ChEMBL document CHEMBL4184323, “Structure-Guided Design, Synthesis, and Characterization of Next-Generation Meprin β Inhibitors” (J Med Chem, 2018).

Key:
ADAM17 = ADAM17 (Homo sapiens, UniProt P78536); experiment: Inhibition of human ADAM17 assessed as residual activity using Abz-LANAVRSSSR-(DapDnp)-AR-NH2 as substrate at 200 uM by fluorescence assay relative to control; conditions: human ADAM17 enzyme, probe Abz-LANAVRSSSR-(DapDnp)-AR-NH2, read-out: Activity
CYP2C9 = CYP2C9 (Homo sapiens, UniProt P11712); experiment: Inhibition of recombinant human CYP2C9 expressed in baculosomes assessed as residual activity at 25 uM using BOMCC substrate by fluorescence assay relative to control; format: ADME; conditions: probe BOMCC, read-out: Activity
Chain of CYP2C9 (P11712 whole entry): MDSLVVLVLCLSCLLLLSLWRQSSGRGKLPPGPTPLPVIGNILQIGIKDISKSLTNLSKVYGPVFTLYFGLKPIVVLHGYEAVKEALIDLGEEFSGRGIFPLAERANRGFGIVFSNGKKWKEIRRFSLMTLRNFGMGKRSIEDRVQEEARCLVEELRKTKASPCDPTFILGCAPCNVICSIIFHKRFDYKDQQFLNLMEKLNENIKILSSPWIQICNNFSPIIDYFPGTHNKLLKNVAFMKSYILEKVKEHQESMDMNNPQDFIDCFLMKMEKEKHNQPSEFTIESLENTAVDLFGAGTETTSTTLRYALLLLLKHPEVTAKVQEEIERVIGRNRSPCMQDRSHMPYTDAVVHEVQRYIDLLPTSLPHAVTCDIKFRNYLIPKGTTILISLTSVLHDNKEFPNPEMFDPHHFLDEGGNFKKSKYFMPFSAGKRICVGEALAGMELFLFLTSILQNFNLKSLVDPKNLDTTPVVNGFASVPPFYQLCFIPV

[1] = Clearance in Sprague-Dawley rat at 6 mg/kg, iv by LC-MS analysis; format: ADME, organism-based; conditions: in vivo
[2] = Cmax in Sprague-Dawley rat at 5 mg/kg, po by LC-MS analysis; format: ADME, organism-based; parameters: dose 5 mg/kg, route oral; conditions: in vivo
[3] = Cmax in Sprague-Dawley rat at 10 mg/kg, ip by LC-MS analysis; format: ADME, organism-based; parameters: dose 10 mg/kg, route intraperitoneal; conditions: in vivo
HepG2 = experiment: Cytotoxicity in human HepG2 cells assessed as cell viability at 100 uM after 24 hrs by CytoTox-ONE-based assay relative to control; format: functional; conditions: HepG2, 24 h, read-out: Activity
[4] = Drug absorption in Sprague-Dawley rat at 5 mg/kg, po by LC-MS analysis; format: ADME, organism-based; conditions: in vivo, read-out: Fabs
MMP2 = MMP2 (Homo sapiens, UniProt P08253); experiment: Inhibition of human MMP2 assessed as residual activity using Mca-PLGL-(DapDnp)-AR-NH2 as substrate at 200 uM by fluorescence assay relative to control; conditions: human MMP2 enzyme, probe Mca-PLGL-(DapDnp)-AR-NH2, read-out: Activity
Chain of MMP2 (P08253 whole entry): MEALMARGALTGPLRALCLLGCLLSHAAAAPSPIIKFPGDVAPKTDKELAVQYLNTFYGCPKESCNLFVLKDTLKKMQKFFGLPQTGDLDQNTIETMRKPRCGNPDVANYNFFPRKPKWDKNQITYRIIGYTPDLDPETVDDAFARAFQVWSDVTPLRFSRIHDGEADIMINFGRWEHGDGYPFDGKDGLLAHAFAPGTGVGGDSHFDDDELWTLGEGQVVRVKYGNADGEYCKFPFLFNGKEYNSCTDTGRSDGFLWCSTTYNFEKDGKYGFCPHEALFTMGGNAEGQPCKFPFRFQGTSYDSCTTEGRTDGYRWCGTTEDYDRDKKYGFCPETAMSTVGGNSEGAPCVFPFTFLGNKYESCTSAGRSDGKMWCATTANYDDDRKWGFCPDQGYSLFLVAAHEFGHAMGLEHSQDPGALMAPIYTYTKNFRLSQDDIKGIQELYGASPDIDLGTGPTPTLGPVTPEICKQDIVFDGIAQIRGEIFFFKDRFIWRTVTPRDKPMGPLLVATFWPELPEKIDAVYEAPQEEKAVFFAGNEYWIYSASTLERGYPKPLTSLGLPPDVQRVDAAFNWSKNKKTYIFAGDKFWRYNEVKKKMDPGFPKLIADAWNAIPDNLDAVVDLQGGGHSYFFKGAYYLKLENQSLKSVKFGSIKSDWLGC

MMP13 = MMP13 (Homo sapiens, UniProt P45452); experiment: Inhibition of human MMP13 assessed as residual activity using Mca-PLGL-(DapDnp)-AR-NH2 as substrate at 200 uM by fluorescence assay relative to control; conditions: human MMP13 enzyme, probe Mca-PLGL-(DapDnp)-AR-NH2, read-out: Activity
Homo sapiens = organism: Homo sapiens; experiment: Selectivity ratio of IC50 for recombinant human meprin alpha expressed in insect cells to IC50 for recombinant human meprin beta expressed in yeast
[5] = Half life in Sprague-Dawley rat at 6 mg/kg, iv by LC-MS analysis; format: ADME, organism-based; conditions: in vivo
CYP3A4 = CYP3A4 (Homo sapiens, UniProt P08684); experiment: Inhibition of recombinant human CYP3A4 expressed in baculosomes assessed as residual activity at 25 uM using BOMCC substrate by fluorescence assay relative to control; format: ADME; conditions: probe BOMCC, read-out: Activity
Chain of CYP3A4 (P08684 whole entry): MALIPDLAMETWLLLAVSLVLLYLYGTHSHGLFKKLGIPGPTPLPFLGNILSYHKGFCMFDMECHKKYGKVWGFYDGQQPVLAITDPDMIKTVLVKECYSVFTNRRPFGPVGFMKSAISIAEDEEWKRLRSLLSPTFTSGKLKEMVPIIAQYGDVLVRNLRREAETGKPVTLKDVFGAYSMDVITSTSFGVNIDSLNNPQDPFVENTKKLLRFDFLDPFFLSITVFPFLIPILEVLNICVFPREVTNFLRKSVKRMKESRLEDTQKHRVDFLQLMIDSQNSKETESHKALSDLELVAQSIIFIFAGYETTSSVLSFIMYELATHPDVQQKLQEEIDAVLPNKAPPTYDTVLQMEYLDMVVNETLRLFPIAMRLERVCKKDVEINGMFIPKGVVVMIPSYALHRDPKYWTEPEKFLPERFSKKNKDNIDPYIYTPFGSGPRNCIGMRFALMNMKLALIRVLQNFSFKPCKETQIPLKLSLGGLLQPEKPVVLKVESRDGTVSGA

MMP9 = MMP9 (Homo sapiens, UniProt P14780); experiment: Inhibition of human MMP9 assessed as residual activity using Mca-PLGL-(DapDnp)-AR-NH2 as substrate at 200 uM by fluorescence assay relative to control; conditions: human MMP9 enzyme, probe Mca-PLGL-(DapDnp)-AR-NH2, read-out: Activity
Chain of MMP9 (P14780 whole entry): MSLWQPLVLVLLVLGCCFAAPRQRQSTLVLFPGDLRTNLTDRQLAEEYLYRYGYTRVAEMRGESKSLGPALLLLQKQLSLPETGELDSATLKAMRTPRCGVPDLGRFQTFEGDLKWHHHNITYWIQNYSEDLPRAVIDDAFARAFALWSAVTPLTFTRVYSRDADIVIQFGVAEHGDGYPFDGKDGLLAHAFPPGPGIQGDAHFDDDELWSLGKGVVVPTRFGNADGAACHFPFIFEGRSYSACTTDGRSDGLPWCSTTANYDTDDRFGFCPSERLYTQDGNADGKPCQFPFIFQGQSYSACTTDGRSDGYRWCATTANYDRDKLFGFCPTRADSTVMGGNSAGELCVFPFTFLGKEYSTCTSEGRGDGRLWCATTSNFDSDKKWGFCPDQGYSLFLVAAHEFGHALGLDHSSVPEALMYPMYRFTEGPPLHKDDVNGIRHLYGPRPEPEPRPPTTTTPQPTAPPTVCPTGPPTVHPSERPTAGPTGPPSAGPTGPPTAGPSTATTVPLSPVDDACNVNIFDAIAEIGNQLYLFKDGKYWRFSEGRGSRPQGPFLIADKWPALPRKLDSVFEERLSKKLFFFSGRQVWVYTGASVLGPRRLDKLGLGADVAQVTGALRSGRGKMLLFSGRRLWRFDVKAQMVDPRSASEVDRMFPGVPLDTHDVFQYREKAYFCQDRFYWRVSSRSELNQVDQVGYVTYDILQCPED

Chain of ADAM17 (P78536 whole entry): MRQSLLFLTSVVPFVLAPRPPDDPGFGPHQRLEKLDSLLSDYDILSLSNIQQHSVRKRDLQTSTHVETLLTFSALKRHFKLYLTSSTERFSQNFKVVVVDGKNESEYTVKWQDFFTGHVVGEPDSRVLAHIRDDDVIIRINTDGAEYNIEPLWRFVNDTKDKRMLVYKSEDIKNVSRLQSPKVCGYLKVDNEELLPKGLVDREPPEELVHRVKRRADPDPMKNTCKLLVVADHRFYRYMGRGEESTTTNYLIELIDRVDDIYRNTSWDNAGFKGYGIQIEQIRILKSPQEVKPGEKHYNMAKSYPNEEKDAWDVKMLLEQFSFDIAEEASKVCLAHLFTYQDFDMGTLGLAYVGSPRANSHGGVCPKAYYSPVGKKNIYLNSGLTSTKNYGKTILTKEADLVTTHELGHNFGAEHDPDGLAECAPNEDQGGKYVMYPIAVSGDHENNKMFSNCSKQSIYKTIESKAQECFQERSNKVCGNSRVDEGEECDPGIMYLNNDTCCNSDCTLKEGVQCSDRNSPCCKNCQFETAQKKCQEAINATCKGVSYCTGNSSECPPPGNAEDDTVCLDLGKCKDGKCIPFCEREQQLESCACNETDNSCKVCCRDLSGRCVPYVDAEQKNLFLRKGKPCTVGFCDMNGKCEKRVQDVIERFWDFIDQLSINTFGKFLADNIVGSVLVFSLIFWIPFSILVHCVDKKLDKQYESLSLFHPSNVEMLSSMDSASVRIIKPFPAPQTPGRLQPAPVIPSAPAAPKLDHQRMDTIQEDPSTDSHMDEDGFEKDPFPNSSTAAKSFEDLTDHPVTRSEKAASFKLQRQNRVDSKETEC

SMILES: O=C(CN(Cc1cccc(C(=O)O)c1)Cc1cccc(C(=O)O)c1)NO
- activity at 200 µM (ADAM17): 76%
- activity at 25 µM (CYP2C9): 101%
- clearance [1]: 1.78 L/h/kg
- Cmax [2]: 0.34 µg/mL
- Cmax [3]: 6.46 µg/mL
- viability at 100 µM (HepG2): 97%
- Fa [4]: 13%
- activity at 200 µM (MMP2): 64%
- activity at 200 µM (MMP13): 78%
- Ratio IC50 (Homo sapiens): 300
- half-life [5]: 2.5 h
- activity at 25 µM (CYP3A4): 86%
- activity at 200 µM (MMP9): 74%
